# Literature values, collected in patent US11980685B1, “Liquid pharmaceutical formulations of tafamidis” (TaP Pharmaceuticals, AG, priority 2022, dated 2024).
# Where two headings read alike, the source gives them in different places.
# Experiments:
# [1] = 20 mg in 3.0 mL, equilibrated 1 h, UHPLC
"Solubility (pH 2.6, 0.02M Acetate-phosphate buffer) [mg/mL]","Solubility (pH 5.3, 0.02M Acetate-phosphate buffer) [mg/mL]","Solubility (pH 6.3, 0.02M Acetate-phosphate buffer) [mg/mL]","Solubility (pH 7.0, 0.02M Acetate-phosphate buffer) [mg/mL]","Solubility (pH 7.6, 0.02M Acetate-phosphate buffer as printed) [mg/mL]","Solubility (pH 7.8, 0.02M Acetate-phosphate buffer) [mg/mL]","Solubility (pH 8.0, 0.02M Acetate-phosphate buffer) [mg/mL]",Solubility classification per the BCS criteria (statement of the NDA 212161 applicant on Table F),Concentration of tafamidis in saturated solution (solubility) ([1]; FaSSIF) [µg/mL],Concentration of tafamidis in saturated solution (solubility) ([1]; FeSSIF) [µg/mL],Concentration of tafamidis in saturated solution (solubility) ([1]; SGF) [µg/mL],SMILES
<0.002,<0.002,0.002,0.0158,0.0175,0.0728,0.140,poorly soluble drug substance,,,,"O=C(O)c1ccc2nc(-c3cc(Cl)cc(Cl)c3)oc2c1 [Tafamidis, 2-(3,5-dichlorophenyl)-1,3-benzoxazole-6-carboxylic acid]"
,,,,,,,,9.0,0.6,1.5,O=C(O)c1ccc2nc(-c3cc(Cl)cc(Cl)c3)oc2c1 [′441 patent's tafamidis crystal form 1]
